Values after ≈ are worked out from the molar mass of the structure shown.
What was measured:
rat = settings: cited from earlier work
bacteria [1] = assay: APDEA in different PVB dispersions at 32° C., ATP analysis (LuminUltra); assay type: cell-based; set-up: bacteria count 6 mo after adding APDEA / bacteria count 1 d after adding APDEA / bacteria count 1 wk after adding APDEA / bacteria count 1 mo after adding APDEA / bacteria count 3 mo after adding APDEA: unit not given here
Description: Tertiary amine, water and PVB-dispersion was mechanically stirred in IKA vertical fixed blade stirrer for sampling in 2-5 minutes. Conditions was industrial clean, meaning no special precautions was taken to prevent contamination, except normal cleanliness and between operations dishwashing procedures.
Working temperatures was 20-25 degre Celsius, and all incubations was made in thermostatic 32-degree Celsius incubator ovens for bottled flasks and open petri dishes.
Before measuring total ATP, the samples are shaken for 30 seconds in a mechanical mixer. 1 ml of each sample is used in the process of analysing total ATP. The protocol is provided by LuminUltra Technologies.
The biocidal effectivity of APDEA in different PVB dispersions was measured as explained above in example 46. Incubation was done at 32° C. and sample tested 1 day (abbreviated as 1d in table XX), 1 week (abbreviated as 1 wk in table XX) and 1, 3 and 6 months (abbreviated as mo in tables XXIII and XXIV) after addition of APDEA.

[2] = cited from earlier work
bacteria [3] = assay: 2,2′-(octylimino)bisethanol in K-Oleate, incubated at 32° C., cATP (LuminUltra); assay type: cell-based
Description: (§1) A solution of 2,2′-(octylimino)bisethanol was added to two different solutions comprising two different surfactants, in two different concentrations of 0.50% and 1.00%. The four different solutions incubated at 32° C. and analysed for microbial activity and microbial contamination using […] Adenosine Triphosphate cATP as a measure of microbial contamination using LuminUltra® microbial monitoring system (see e.g. Examples 1, 5 and 6). The results are summarized in tables XXV and XXVI, where “additive” refers to 2,2′-(octylimino)bisethanol.

bacteria [4] = assay: 2,2′-(octylimino)bisethanol in common surfactant/soap, at 32° C., cATP (LuminUltra); assay type: cell-based
Description: as §1

bacteria [5] = assay: 2,2′-(octylimino)bisethanol in contaminated solution of polyisocyanate crosslinker, 32° C., cATP (LuminUltra); assay type: cell-based; settings: for bacteria count: 32° C.
Description: For further analysing the biocidal effect of 2,2′-(octylimino)bisethanol, a solution of 2,2′-(octylimino)bisethanol was added into a contaminated solution of polyisocyanate crosslinker in two different concentrations of 0.50% and 1.00%, incubated at 32° C. and analysed for microbial activity and microbial contamination using […] Adenosine Triphosphate cATP as a measure of microbial contamination using LuminUltra® microbial monitoring system.

[6] = 0.5% APDEA, PVB dispersion FX2, 32° C.
[7] = 0.5% APDEA, PVB dispersion FX6, 32° C.
[8] = 0.5% APDEA, PVB dispersion MW, 32° C.
[9] = 0.5% APDEA, PVB dispersion SX2, 32° C.
[10] = 0.5% APDEA, PVB dispersion WX2, 32° C.
[11] = 0.5% APDEA, PVB dispersion WX25, 32° C.
[12] = 1.0% APDEA, PVB dispersion FX2, 32° C.
[13] = 1.0% APDEA, PVB dispersion FX6, 32° C.
[14] = 1.0% APDEA, PVB dispersion MW, 32° C.
[15] = 1.0% APDEA, PVB dispersion SX2, 32° C.
[16] = 1.0% APDEA, PVB dispersion WX2, 32° C.
[17] = 1.0% APDEA, PVB dispersion WX25, 32° C.
[18] = 0.50% in common surfactant/soap
[19] = 1.00% in common surfactant/soap

Structure (SMILES): [Cl-].[Na+] [NaCl, reference compound]
- LD50 (rat, oral) (rat): 3000 mg

Structure (SMILES): NCCCN(CCO)CCO [APDEA, N-(3-Aminopropyl) diethanolamine]
- bacteria count 1 mo after adding APDEA (bacteria [1]; [6]): 35
- bacteria count 1 wk after adding APDEA (bacteria [1]; [6]): 73
- bacteria count 3 mo after adding APDEA (bacteria [1]; [6]): 83
- bacteria count 6 mo after adding APDEA (bacteria [1]; [6]): 195
- bacteria count 1 d after adding APDEA (bacteria [1]; [6]): 25
- bacteria count 1 mo after adding APDEA (bacteria [1]; [7]): 40
- bacteria count 1 wk after adding APDEA (bacteria [1]; [7]): 33
- bacteria count 3 mo after adding APDEA (bacteria [1]; [7]): 65
- bacteria count 6 mo after adding APDEA (bacteria [1]; [7]): 96.6
- bacteria count 1 d after adding APDEA (bacteria [1]; [7]): 71
- bacteria count 1 mo after adding APDEA (bacteria [1]; [8]): 60
- bacteria count 1 wk after adding APDEA (bacteria [1]; [8]): 33
- bacteria count 3 mo after adding APDEA (bacteria [1]; [8]): 84
- bacteria count 6 mo after adding APDEA (bacteria [1]; [8]): 45
- bacteria count 1 d after adding APDEA (bacteria [1]; [8]): 82
- bacteria count 1 mo after adding APDEA (bacteria [1]; [9]): 85
- bacteria count 1 wk after adding APDEA (bacteria [1]; [9]): 66
- bacteria count 3 mo after adding APDEA (bacteria [1]; [9]): 48
- bacteria count 6 mo after adding APDEA (bacteria [1]; [9]): 79
- bacteria count 1 d after adding APDEA (bacteria [1]; [9]): 29
- bacteria count 1 mo after adding APDEA (bacteria [1]; [10]): 50
- bacteria count 1 wk after adding APDEA (bacteria [1]; [10]): 116
- bacteria count 3 mo after adding APDEA (bacteria [1]; [10]): 38.8
- bacteria count 6 mo after adding APDEA (bacteria [1]; [10]): 22
- bacteria count 1 d after adding APDEA (bacteria [1]; [10]): 59
- bacteria count 1 mo after adding APDEA (bacteria [1]; [11]): 98
- bacteria count 1 wk after adding APDEA (bacteria [1]; [11]): 95
- bacteria count 3 mo after adding APDEA (bacteria [1]; [11]): 177
- bacteria count 6 mo after adding APDEA (bacteria [1]; [11]): 93
- bacteria count 1 d after adding APDEA (bacteria [1]; [11]): 71
- biocidal effect as sole biocide (bacteria [1]; 0.5 and 1 wt % to water phase): effects similar to NBDA
- bacteria count 1 mo after adding APDEA (bacteria [1]; [12]): 78
- bacteria count 1 wk after adding APDEA (bacteria [1]; [12]): 80
- bacteria count 3 mo after adding APDEA (bacteria [1]; [12]): 134
- bacteria count 6 mo after adding APDEA (bacteria [1]; [12]): 167
- bacteria count 1 d after adding APDEA (bacteria [1]; [12]): 66
- bacteria count 1 mo after adding APDEA (bacteria [1]; [13]): 100
- bacteria count 1 wk after adding APDEA (bacteria [1]; [13]): 22.4
- bacteria count 3 mo after adding APDEA (bacteria [1]; [13]): 99
- bacteria count 6 mo after adding APDEA (bacteria [1]; [13]): 132
- bacteria count 1 d after adding APDEA (bacteria [1]; [13]): 12
- bacteria count 1 mo after adding APDEA (bacteria [1]; [14]): 110
- bacteria count 1 wk after adding APDEA (bacteria [1]; [14]): 115
- bacteria count 3 mo after adding APDEA (bacteria [1]; [14]): 98
- bacteria count 6 mo after adding APDEA (bacteria [1]; [14]): 38
- bacteria count 1 d after adding APDEA (bacteria [1]; [14]): 75
- bacteria count 1 mo after adding APDEA (bacteria [1]; [15]): 98
- bacteria count 1 wk after adding APDEA (bacteria [1]; [15]): 81
- bacteria count 3 mo after adding APDEA (bacteria [1]; [15]): 92
- bacteria count 6 mo after adding APDEA (bacteria [1]; [15]): 98
- bacteria count 1 d after adding APDEA (bacteria [1]; [15]): 69
- bacteria count 1 mo after adding APDEA (bacteria [1]; [16]): 33
- bacteria count 1 wk after adding APDEA (bacteria [1]; [16]): 18
- bacteria count 3 mo after adding APDEA (bacteria [1]; [16]): 78
- bacteria count 6 mo after adding APDEA (bacteria [1]; [16]): 20
- bacteria count 1 d after adding APDEA (bacteria [1]; [16]): 45
- bacteria count 1 mo after adding APDEA (bacteria [1]; [17]): 75
- bacteria count 1 wk after adding APDEA (bacteria [1]; [17]): 136
- bacteria count 3 mo after adding APDEA (bacteria [1]; [17]): 151
- bacteria count 6 mo after adding APDEA (bacteria [1]; [17]): 35
- bacteria count 1 d after adding APDEA (bacteria [1]; [17]): 72
- solubility in water (words) [2]: water soluble

Structure (SMILES): CCCCCCCCN(CCO)CCO [2,2′-(octylimino)bisethanol]
- BSI (1 day after adding additive) (bacteria [3]; 0.50% in K-Oleate): 29
- BSI (after 1 month) (bacteria [3]; 0.50% in K-Oleate): 68
- BSI (after 1 week) (bacteria [3]; 0.50% in K-Oleate): 52
- BSI (after 3 months) (bacteria [3]; 0.50% in K-Oleate): 80.1
- BSI (after 9 months) (bacteria [3]; 0.50% in K-Oleate): 81.3
- bacteria count (1 day after adding additive) (bacteria [3]; 0.50% in K-Oleate): 789
- bacteria count (after 1 month) (bacteria [3]; 0.50% in K-Oleate): 215
- bacteria count (after 1 week) (bacteria [3]; 0.50% in K-Oleate): 758
- bacteria count (after 3 months) (bacteria [3]; 0.50% in K-Oleate): 88
- bacteria count (after 6 months) (bacteria [3]; 0.50% in K-Oleate): 0
- bacteria count (after 9 months) (bacteria [3]; 0.50% in K-Oleate): 30
- BSI (1 day after adding additive) (bacteria [3]; 1.00% in K-Oleate): 35
- BSI (after 1 month) (bacteria [3]; 1.00% in K-Oleate): 71
- BSI (after 1 week) (bacteria [3]; 1.00% in K-Oleate): 43
- BSI (after 3 months) (bacteria [3]; 1.00% in K-Oleate): 82.4
- BSI (after 6 months) (bacteria [3]; 1.00% in K-Oleate): 30.6
- BSI (after 9 months) (bacteria [3]; 1.00% in K-Oleate): 88.8
- bacteria count (1 day after adding additive) (bacteria [3]; 1.00% in K-Oleate): 284
- bacteria count (after 1 month) (bacteria [3]; 1.00% in K-Oleate): 50
- bacteria count (after 1 week) (bacteria [3]; 1.00% in K-Oleate): 176
- bacteria count (after 3 months) (bacteria [3]; 1.00% in K-Oleate): 39
- bacteria count (after 6 months) (bacteria [3]; 1.00% in K-Oleate): 629
- bacteria count (after 9 months) (bacteria [3]; 1.00% in K-Oleate): 13
- BSI (1 day after adding additive) (bacteria [4]; [18]): 18
- BSI (after 1 month) (bacteria [4]; [18]): 47
- BSI (after 1 week) (bacteria [4]; [18]): 14
- BSI (after 3 months) (bacteria [4]; [18]): 75
- BSI (after 9 months) (bacteria [4]; [18]): 90.8
- bacteria count (1 day after adding additive) (bacteria [4]; [18]): 917
- bacteria count (after 1 month) (bacteria [4]; [18]): 360
- bacteria count (after 1 week) (bacteria [4]; [18]): 5040
- bacteria count (after 3 months) (bacteria [4]; [18]): 28.5
- bacteria count (after 6 months) (bacteria [4]; [18]): 0
- bacteria count (after 9 months) (bacteria [4]; [18]): 7.5
- BSI (1 day after adding additive) (bacteria [4]; [19]): 18
- BSI (after 1 month) (bacteria [4]; [19]): 80
- BSI (after 1 week) (bacteria [4]; [19]): 13
- BSI (after 3 months) (bacteria [4]; [19]): 53.1
- BSI (after 6 months) (bacteria [4]; [19]): 55.6
- BSI (after 9 months) (bacteria [4]; [19]): 39.2
- bacteria count (1 day after adding additive) (bacteria [4]; [19]): 369
- bacteria count (after 1 month) (bacteria [4]; [19]): 2.6
- bacteria count (after 1 week) (bacteria [4]; [19]): 141
- bacteria count (after 3 months) (bacteria [4]; [19]): 20.7
- bacteria count (after 6 months) (bacteria [4]; [19]): 5.86
- bacteria count (after 9 months) (bacteria [4]; [19]): 10.5
- bacteria count (bacteria [5]; 0.50%, 1 day after adding additive): 226
- bacteria count (bacteria [5]; 0.50%, after 1 month): 20
- bacteria count (bacteria [5]; 0.50%, after 1 week): 20
- bacteria count (bacteria [5]; 0.50%, after 3 months): 282
- bacteria count (bacteria [5]; 0.50%, after 6 months): 0
- bacteria count (bacteria [5]; 1.00%, 1 day after adding additive): 174
- bacteria count (bacteria [5]; 1.00%, after 1 month): 155
- bacteria count (bacteria [5]; 1.00%, after 1 week): 180
- bacteria count (bacteria [5]; 1.00%, after 3 months): 0
- bacteria count (bacteria [5]; 1.00%, after 6 months): 0
- effectiveness as a biocide (bacteria [5]; as low concentration as 0.50%, all three test solutions, long term (at least 6 months)): highly effective as a biocide
- solubility in water [2]: 1400 µg/mL (≈ 6.44 mM)
- solubility in water (words) [2]: water dispersible
